This is an account of results in patent publication US20070207946A1, “Dipeptidyl peptidase IV inhibitors and their uses for lowering blood pressure levels” (priority 2001, published 2007).

One test deals with T1, plasma DPIV activity (Rattus norvegicus, UniProt P14740).
T1 construct: from tissue; host or cells: plasma of Wistar rats
The test can be described thus: DPIV inhibiting activity after intravasal and oral administration to Wistar rats. The test is classed as in vivo. The note with it: rat. The method, then:
Male Wistar rats (Shoe: Wist(Sho)) with a body weight ranging between 250 and 350 g were purchased from Tierzucht Schönwalde (Schönwalde, Germany).
Animals were single-caged under conventional conditions with controlled temperature (22±2° C.) on a 12/12 hours light/dark cycle (light on at 06:00 AM). Standard pelleted chow (ssniff® Soest, Germany) and tap water acidified with HCl were allowed ad libitum.
After ≧one week of adaptation at the housing conditions, catheters were implanted into the carotid artery of Wistar rats under general anaesthesia (i.p. injection of 0.25 ml/kg b.w. Rompun® [2%], BayerVital, Germany and 0.5 ml/kg b.w. Ketamin 10, Atarost GmbH & Co., Twistringen, Germany). The animals were allowed to recover for one week. The catheters were flushed with heparin-saline (100 IU/ml) three times per week. In case of catheter dysfunction, a second catheter was inserted into the contra-lateral carotid artery of the respective rat. After one week of recovery from surgery, this animal was reintegrated into the study. In case of dysfunction of the second catheter, the animal was withdrawn from the study. A new animal was recruited and the experiments were continued in the planned sequence, beginning at least 7 days after catheter implantation.
After overnight fasting, 100 μl samples of heparinised arterial blood were collected at −30, −5, and 0 min. […] In the case of oral administration, an additional volume of 1 ml saline was injected into the arterial catheter. In the case of infra-arterial administration, the catheter was immediately flushed with 30 μl saline and an additional 1 ml of saline was given orally via the feeding tube.
All blood samples were collected into ice cooled Eppendorf tubes (Eppendorf-Netheler-Hinz, Hamburg, Germany) filled with 10 μl 1M sodium citrate buffer (pH 3.0) for plasma DPIV activity measurement. Eppendorf tubes were centrifuged immediately (12000 rpm for 2 min, Hettich Zentrifuge EBA 12, Tuttlingen; Germany): The plasma fractions were stored on ice until analysis or were frozen at −20° C. until analysis. All plasma samples were labelled with the following data:
The assay mixture for determination of plasma DPIV activity consisted of 80 μl reagent and 20 μl plasma sample. […] The DPIV activity was expressed in mU/ml.
All parameters were analysed in a descriptive manner including mean and SD.

Test [1] concerns Dipeptidyl Peptidase I (DP I, Cathepsin C). Nature of the test: Cross reacting enzymes - dipeptidyl peptidase I. The test is classed as biochemical. The note with it: concentration range 1*10^−5 M-1*10^−7M; MES buffer pH5.6. The method, then: DP I or cathepsin C is a lysosomal cysteine protease which cleaves off dipeptides from the N-terminus of their substrates (Gutman, H. R. & Fruton, J. S., 1948, J. Biol: Chem., 174, 851-858). It is classified as a cysteine protease. The enzyme used was purchased from Qiagen (Qiagen GmbH, Hilden, Germany). In order to get a fully active enzyme, the enzyme was diluted 1000 fold in MES buffer pH5.6 (40 mM MES, 4 mM DTT, 4 mM KCl, 2 mM EDTA, 0.015% Brij) and pre-incubated for 30 min at 30° C.
50 μl glutaminyl pyrrolidine or glutaminyl thiazolidine in a concentration range of 1*10^−5 M-1*10^−7M were admixed with 110 μl buffer-enzyme-mixture. The assay mixture was pre-incubated at 30° C. for 15 min. After pre-incubation, 100 μl histidylseryl-[…]-nitroaniline (2*10^−5M) was added and measurement of yellow color development due to β-nitroaniline release was performed at 30° C. and […] for 10 min., using a plate reader (HTS7000 plus, Applied Biosystems, Weiterstadt, Germany).
The IC50-values were calculated using Graphit 4.0.15 (Erithacus Software, Ltd., UK).

The target of test [2] is T2, recombinant human prolyl oligopeptidase (Homo sapiens, UniProt P48147).
T2 construct: made in house; host or cells: E. coli
T2 sequence (P48147 1-710): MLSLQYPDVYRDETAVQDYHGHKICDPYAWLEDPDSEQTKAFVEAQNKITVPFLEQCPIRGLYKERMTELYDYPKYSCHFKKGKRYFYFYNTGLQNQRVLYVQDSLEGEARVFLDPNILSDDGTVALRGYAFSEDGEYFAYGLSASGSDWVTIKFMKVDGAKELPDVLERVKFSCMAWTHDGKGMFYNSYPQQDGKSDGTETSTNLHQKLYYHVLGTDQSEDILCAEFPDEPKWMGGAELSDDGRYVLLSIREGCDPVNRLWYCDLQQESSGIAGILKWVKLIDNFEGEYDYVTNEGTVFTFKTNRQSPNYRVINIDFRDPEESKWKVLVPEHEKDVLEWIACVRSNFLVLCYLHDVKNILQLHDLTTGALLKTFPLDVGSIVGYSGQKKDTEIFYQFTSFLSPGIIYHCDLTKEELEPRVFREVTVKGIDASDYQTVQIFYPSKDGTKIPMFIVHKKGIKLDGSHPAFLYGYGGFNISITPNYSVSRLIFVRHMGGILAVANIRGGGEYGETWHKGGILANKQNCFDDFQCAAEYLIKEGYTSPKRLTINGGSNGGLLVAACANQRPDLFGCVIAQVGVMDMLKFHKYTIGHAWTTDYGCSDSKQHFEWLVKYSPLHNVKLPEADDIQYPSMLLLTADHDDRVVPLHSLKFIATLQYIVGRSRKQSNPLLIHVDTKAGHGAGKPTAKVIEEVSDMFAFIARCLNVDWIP
Nature of the test: Cross reacting enzymes - prolyl oligopeptidase. It is filed as biochemical. The note with it: concentration range 1*10^−4M-5*10^−8 M; pH7.6. The method, then: Substrates are peptides with a molecular weight up to 3000 Da. The enzyme used was a recombinant human prolyl oligopeptidase. Recombinant expression was performed in E. coli under standard conditions as described elsewhere in the state of the art.
100 μl glutaminyl pyrrolidine or glutaminyl thiazolidine in an concentration range of 1*10^−4M-5*10^−8 M were admixed with 100 μl μl buffer solution (40 mM HEPES, pH7.6, 0.015% Brij, 1 mM DTT) and 20 μl POP solution. The assay mixture was pre-incubated at 30° C. for 15 min. After pre-incubation, 50 μl glycylprolylprolyl-4-nitroaniline solution (0.29 mM) was added and measurement of yellow color development due to 4-nitroaniline release was performed at 30° C. and λ=405 nm for 10 min using a plate reader (sunrise, Tecan, Crailsheim, Germany). The IC50-values were calculated using Graphit 4.0.15 (Erithacus Software, Ltd., UK).

Where two headings read alike, the source gives them in different places.

T1 sequence (P14740 38-767 limits assumed): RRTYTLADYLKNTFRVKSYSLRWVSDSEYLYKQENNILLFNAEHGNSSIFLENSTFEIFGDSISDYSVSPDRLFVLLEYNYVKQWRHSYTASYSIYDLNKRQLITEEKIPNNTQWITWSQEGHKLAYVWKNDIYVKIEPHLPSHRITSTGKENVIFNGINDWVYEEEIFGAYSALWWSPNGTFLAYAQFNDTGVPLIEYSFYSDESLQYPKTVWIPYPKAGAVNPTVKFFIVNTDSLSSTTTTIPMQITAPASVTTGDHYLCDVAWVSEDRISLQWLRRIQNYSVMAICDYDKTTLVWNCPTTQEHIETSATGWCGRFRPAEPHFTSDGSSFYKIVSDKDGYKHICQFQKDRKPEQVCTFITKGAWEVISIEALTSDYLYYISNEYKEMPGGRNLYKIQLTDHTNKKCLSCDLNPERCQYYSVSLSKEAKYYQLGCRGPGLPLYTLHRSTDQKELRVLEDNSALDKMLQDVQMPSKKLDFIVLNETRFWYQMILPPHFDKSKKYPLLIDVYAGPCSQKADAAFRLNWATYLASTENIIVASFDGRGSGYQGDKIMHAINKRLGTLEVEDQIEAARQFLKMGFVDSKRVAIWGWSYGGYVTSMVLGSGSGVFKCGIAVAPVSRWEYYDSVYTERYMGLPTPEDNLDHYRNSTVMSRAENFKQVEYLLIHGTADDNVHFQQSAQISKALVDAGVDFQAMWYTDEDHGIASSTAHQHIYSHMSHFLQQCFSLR

In the case of `NC(=O)CCC(N)C(=O)N1CCCC1` (stereo not shown) [Gln-Pyrr, glutaminyl pyrrolidine], the inhibition at 100 mg/kg amounted to 80% on plasma DPIV activity (iv, intra-vasal (intra-arterial) route, read-out: in vivo DPIV-inhibition at tmax, i.v.) and 67% on plasma DPIV activity (oral, read-out: in vivo DPIV-inhibition at tmax, p.o.). For the same compound, the “inhibition of DP I enzyme activity” value in test [1] is “No inhibition”. Besides, the “inhibition of POP activity” value in test [2] was “No inhibition”.
